Experimental data published in the NIST ThermoML archive (doi:10.1021/je4002009).
± gives the expanded uncertainty stated by the source.

Test: mn = molality of the nth substance listed, in mol/kg
Conditions: 101 kPa, Liquid; for viscosity: Capillary tube (Ostwald / Ubbelohde) method

CN1CCCC1=O.O=S(=O)(O)c1ccccc1 [1-methyl-2-pyrrolidinone benzenesulfonate] + O
Conditions	mass density, 298.15 K [kg/m3]	mass density, 303.15 K [kg/m3]	mass density, 308.15 K [kg/m3]	viscosity, 298.15 K [mPa·s]	viscosity, 303.15 K [mPa·s]	viscosity, 308.15 K [mPa·s]
m1 = 0.0521	1000.25 ± 0.76	998.54 ± 0.77	996.69 ± 0.79	0.9266 ± 0.011	0.8213 ± 0.0095	0.7506 ± 0.0087
m1 = 0.1042	1003.16 ± 0.79	1001.68 ± 0.77	999.93 ± 0.76	0.9506 ± 0.011	0.845 ± 0.0098	0.7706 ± 0.009
m1 = 0.1369	1004.9 ± 0.8	1003.46 ± 0.79	1001.57 ± 0.77	0.9685 ± 0.011	0.8602 ± 0.01	0.7809 ± 0.0091
m1 = 0.2057	1008.79 ± 0.84	1007.07 ± 0.83	1004.83 ± 0.81	1.003 ± 0.012	0.8912 ± 0.01	0.8063 ± 0.0094
m1 = 0.2512	1011.09 ± 0.87	1009.23 ± 0.85	1006.69 ± 0.83	1.028 ± 0.012	0.9109 ± 0.011	0.8208 ± 0.0096
m1 = 0.2984	1013.59 ± 0.89	1011.55 ± 0.87	1008.84 ± 0.85	1.055 ± 0.012	0.9313 ± 0.011	0.8393 ± 0.0098
m1 = 0.3556	1016.55 ± 0.92	1014.41 ± 0.9	1011.59 ± 0.88	1.083 ± 0.013	0.9567 ± 0.011	0.8611 ± 0.01
m1 = 0.4028	1018.9 ± 0.95	1016.7 ± 0.93	1013.74 ± 0.9	1.107 ± 0.013	0.9774 ± 0.011	0.8786 ± 0.01
m1 = 0.4537	1021.44 ± 0.98	1019.25 ± 0.96	1016.36 ± 0.93	1.133 ± 0.013	1.002 ± 0.012	0.8972 ± 0.01
m1 = 0.5093	1024.16 ± 1	1022.14 ± 0.99	1019.21 ± 0.96	1.16 ± 0.013	1.025 ± 0.012	0.9174 ± 0.011
m1 = 0.6018	1028.61 ± 1.1	1026.63 ± 1	1023.82 ± 1	1.204 ± 0.014	1.065 ± 0.012	0.9514 ± 0.011
m1 = 0.6492	1030.83 ± 1.1	1028.91 ± 1.1	1026.28 ± 1	1.226 ± 0.014	1.085 ± 0.013	0.9692 ± 0.011
m1 = 0.7511	1035.5 ± 1.1	1033.54 ± 1.1	1030.78 ± 1.1	1.277 ± 0.015	1.13 ± 0.013	1.009 ± 0.012
m1 = 0.8129	1038.24 ± 1.2	1036.23 ± 1.1	1033.29 ± 1.1	1.309 ± 0.015	1.158 ± 0.014	1.034 ± 0.012
m1 = 0.871	1040.72 ± 1.2	1038.49 ± 1.2	1035.54 ± 1.1	1.341 ± 0.016	1.185 ± 0.014	1.059 ± 0.012
m1 = 0.9001	1042.02 ± 1.2	1039.67 ± 1.2	1036.66 ± 1.1	1.358 ± 0.016	1.198 ± 0.014	1.072 ± 0.013
m1 = 1.019	1047.01 ± 1.2	1044.27 ± 1.2	1041.12 ± 1.2	1.423 ± 0.017	1.257 ± 0.015	1.127 ± 0.013
m1 = 1.199	1054.33 ± 1.3	1052.06 ± 1.3	1049.61 ± 1.3	1.54 ± 0.018	1.358 ± 0.016	1.219 ± 0.014
